Data reported in ChEMBL document CHEMBL5729293, “Inhibitors of KEAP1-Nrf2 protein-protein interaction” (2022).

assay: Fluorescence Based Assay: The details of the KEAP1 KELCH ThermoFluor® Assay Construct are as follows: Kelch domain of human KEAP 1 (321-624 aa) was used in the assay. The protein was expressed in E. coli with 6His tag that was cleaved prior to receipt for use.ThermoFluor® experiments were carried out using instruments owned by Janssen Research and Discovery, L.L.C. through its acquisition of 3-Dimensional Pharmaceuticals, Inc. 1,8-ANS (Invitrogen) was used as a fluorescent dye. Protein (KEAP Kelch) and compound solutions were dispensed into black 384-well polypropylene PCR microplates (Abgene) and overlayed with silicone oil (1 μL, Fluka, type DC 200) to prevent evaporation.Reference wells contained KEAP Kelch without compounds, and the assay conditions were as follows: 1.1 μM (0.037mg/mL) KEAP Kelch, 80 μM 1,8-ANS, 25 mM PIPES, pH 7.0, 100 mM NaCl, 0.002% Tween-20.

`Cc1ccc([C@@H](CC(=O)O)c2ccn3c(C(F)(F)F)nnc3c2C)nc1CN1C[C@@H]2CCCCN2c2ncc(C#N)cc2S1(=O)=O` and `Cc1ccc([C@H](CC(=O)O)c2ccn3c(C(F)(F)F)nnc3c2C)nc1CN1C[C@@H]2CCCCN2c2ncc(C#N)cc2S1(=O)=O` cannot be ordered by Kd: less than 1 nM for the first, less than 1 nM for the second.

`Cc1ccc([C@@H](CC(=O)O)c2ccc3c(nnn3CC3CC3)c2C)cc1CN1C[C@@H]2CCCCN2c2ncccc2S1(=O)=O` and `Cc1ccc([C@@H](CC(=O)O)c2ccc3c(nnn3CC3CC3)c2C)cc1CN1C[C@H]2CCCN2c2ncccc2S1(=O)=O` cannot be ordered by Kd: less than 1 nM for the first, less than 1 nM for the second.

`Cc1ccc([C@H](c2ccn3c(C(F)(F)F)nnc3c2C)C(C)(C)C(=O)O)cc1CN1CC2(CCOCC2)Oc2nc(N[C@H](C)C(C)(C)O)c(C)cc2S1(=O)=O` and `Cc1ccc([C@H](c2ccn3c(C(F)(F)F)nnc3c2C)C(C)(C)C(=O)O)cc1CN1CC2(CCOCC2)Oc2nc(N[C@H](C)CN3CCOCC3)c(C)cc2S1(=O)=O` cannot be ordered by Kd: less than 1 nM for the first, less than 1 nM for the second.

`Cc1ccc([C@H](c2ccn3c(C(F)(F)F)nnc3c2C)C(C)(C)C(=O)O)cc1CN1CC2(CCOCC2)Oc2nc(OCC(=O)NCCO)ccc2S1(=O)=O` and `Cc1ccc(C(c2ccn3c(C(F)(F)F)nnc3c2C)C(C)(C)C(=O)O)cc1CN1CC2(CCOCC2)Oc2nc(OCCCO)ccc2S1(=O)=O` (stereo not given) cannot be ordered by Kd: less than 1 nM for the first, less than 1 nM for the second.

`Cc1ccc(C(CC(=O)O)c2ccn3c(C(F)(F)F)nnc3c2C)nc1CN1C[C@@H]2CCCCN2c2ncc(F)cc2S1(=O)=O` (stereo not given in full) and `Cc1cnc2c(c1)S(=O)(=O)N(Cc1nc([C@@H](CC(=O)O)c3ccn4c(C(F)(F)F)nnc4c3C)ccc1C)C[C@H]1CCCCN21` cannot be ordered by Kd: less than 1 nM for the first, less than 1 nM for the second.

`Cc1cnc2c(c1)S(=O)(=O)N(Cc1cc(C(CC(=O)O)c3ccn4c(C(F)F)nnc4c3C)ccc1C)C[C@@H]1CCCCN21` (stereo not given in full) and `Cc1ccc([C@H](CC(=O)O)c2ccn3c(C(F)(F)F)nnc3c2C)cc1CN1C[C@@H]2CCCCN2c2ncc(Cl)cc2S1(=O)=O` cannot be ordered by Kd: less than 1 nM for the first, less than 1 nM for the second.

`Cc1ccc(C(CC(=O)O)c2ccn3c(C(F)(F)F)nnc3c2C)cc1CN1CC2CCC(F)(F)CN2c2ncccc2S1(=O)=O` (stereo not given) and `Cc1ccc([C@@H](CC(=O)O)c2ccn3c(C(F)(F)F)nnc3c2C)cc1CN1C[C@H]2CCC(F)(F)CN2c2ncccc2S1(=O)=O` cannot be ordered by Kd: less than 1 nM for the first, less than 1 nM for the second.

`Cc1cnc2c(c1)S(=O)(=O)N(Cc1cc([C@@H](c3ccn4c(C(F)(F)F)nnc4c3C)C(C)(C)C(=O)O)ccc1C)C[C@]1(CCOC1)O2` and `Cc1cnc2c(c1)S(=O)(=O)N(Cc1cc([C@@H](c3ccn4c(C(F)(F)F)nnc4c3C)C(C)(C)C(=O)O)ccc1C)CC1(COC1)O2` cannot be ordered by Kd: less than 1 nM for the first, less than 1 nM for the second.

`Cc1cnc2c(c1)S(=O)(=O)N(Cc1cc([C@H](c3ccn4c(C(F)(F)F)nnc4c3C)C(C)(C)C(=O)O)cnc1C)CC1(CCOCC1)O2` and `Cc1cnc2c(c1)S(=O)(=O)N(Cc1cc([C@H](CC(=O)O)c3ccn4c(C(F)(F)F)nnc4c3C)ccc1C)CC1(CCOCC1)O2` cannot be ordered by Kd: less than 1 nM for the first, less than 1 nM for the second.

`Cc1ccc([C@H](c2ccn3c(C(F)(F)F)nnc3c2C)[C@H](C)C(=O)O)cc1CN1CC2(CC2)Oc2ncccc2S1(=O)=O` and `Cc1ccc(C(CC(=O)O)c2ccn3c(C(F)(F)F)nnc3c2C)cc1CN1CC2(COC2)Oc2ncccc2S1(=O)=O` (stereo not given) cannot be ordered by Kd: less than 1 nM for the first, less than 1 nM for the second.

`Cc1ccc([C@H](CC(=O)O)c2ccn3c(C(F)(F)F)nnc3c2C)cc1CN1CC2(CC2)Oc2nc(N(C)CCCO)ccc2S1(=O)=O` and `Cc1ccc([C@H](CC(=O)O)c2ccn3c(C(F)(F)F)nnc3c2C)cc1CN1CC2(CC2)Oc2nc(NCCO)ccc2S1(=O)=O` cannot be ordered by Kd: less than 1 nM for the first, less than 1 nM for the second.

`Cc1ccc([C@H](CC(=O)O)c2ccn3c(C(F)(F)F)nnc3c2C)cc1CN1C[C@@H]2CCCCN2c2ncc(C#N)cc2S1(=O)=O` and `Cc1ccc([C@H](CC(=O)O)c2ccn3c(C(F)(F)F)nnc3c2C)cc1CN1C[C@H]2CCCCN2c2ncc(C#N)cc2S1(=O)=O` cannot be ordered by Kd: less than 1 nM for the first, less than 1 nM for the second.

Compared with `Cc1ccc([C@H](c2ccn3c(C(F)(F)F)nnc3c2C)C(C)(C)C(=O)O)cc1CN1CC2(CCNCC2)Oc2ncccc2S1(=O)=O`, `Cc1ccc([C@@H](c2ccn3c(C(F)(F)F)nnc3c2C)C(C)(C)C(=O)O)nc1CN1CC2(CCOCC2)Oc2ncccc2S1(=O)=O` is lower in Kd: greater than 10000 nM for the first, less than 1 nM for the second. The second binds more tightly here.

`Cc1ccc([C@H](CC(=O)O)c2ccn3c(C(F)F)nnc3c2C)cc1CN1CC2(COC2)Oc2ncccc2S1(=O)=O` and `Cc1ccc(C(CC(=O)O)c2ccn3c(C(F)F)nnc3c2C)cc1CN1CC2(CC2)Oc2ncccc2S1(=O)=O` (stereo not given) cannot be ordered by Kd: less than 1 nM for the first, less than 1 nM for the second.

`CCn1nnc2c(C)c([C@H](CC(=O)O)c3ccc(C)c(CN4CC5(CC5)Oc5ncccc5S4(=O)=O)n3)ccc21` and `CCn1nnc2c(C)c(C(CC(=O)O)c3ccc(C)c(CN4CC5(COC5)Oc5ncccc5S4(=O)=O)n3)ccc21` (stereo not given) cannot be ordered by Kd: less than 1 nM for the first, less than 1 nM for the second.

`Cc1cnc([C@@H](c2ccn3c(C(F)(F)F)nnc3c2C)C(C)(C)C(=O)O)cc1CN1CC2(CC2)Oc2nc(OCCN3CCCCC3)c(C)cc2S1(=O)=O` and `Cc1ccc([C@@H](c2ccn3c(C(F)(F)F)nnc3c2C)C(C)(C)C(=O)O)cc1CN1CC2(CC2)Oc2nc(OCCN3CCC3)c(C)cc2S1(=O)=O` cannot be ordered by Kd: less than 1 nM for the first, less than 1 nM for the second.

`Cc1ccc([C@@H](CC(=O)O)c2ccn3c(C(F)(F)F)nnc3c2C)nc1CN1C[C@H]2CCCCN2c2ncc(C#N)cc2S1(=O)=O` and `Cc1ccc([C@@H](CC(=O)O)c2ccn3c(C(F)(F)F)nnc3c2C)nc1CN1C[C@H]2CCCCN2c2ncc(Cl)cc2S1(=O)=O` cannot be ordered by Kd: less than 1 nM for the first, less than 1 nM for the second.

`Cc1ccc(C(CC(=O)O)c2ccn3c(C(F)(F)F)nnc3c2C)cc1CN1C[C@H]2CCCCN2c2ncccc2S1(=O)=O` (stereo not given in full) and `Cc1c([C@@H](CC(=O)O)c2ccc(Cl)c(CN3CC4CCCCN4c4ncccc4S3(=O)=O)c2)ccn2c(C(F)(F)F)nnc12` (stereo not given in full) cannot be ordered by Kd: less than 1 nM for the first, less than 1 nM for the second.

`Cc1ccc([C@@H](c2ccn3c(C(F)F)nnc3c2C)C(C)(C)C(=O)O)nc1CN1CC2(COC2)Oc2ncccc2S1(=O)=O` and `Cc1ccc([C@@H](c2ccn3c(C4CC4)nnc3c2C)C(C)(C)C(=O)O)cc1CN1CC2(COC2)Oc2ncccc2S1(=O)=O` cannot be ordered by Kd: less than 1 nM for the first, less than 1 nM for the second.

`CC[C@@H]1CN(Cc2cc(C(CC(=O)O)c3ccn4c(C)nnc4c3)ccc2C)S(=O)(=O)c2cccnc2O1` (stereo not given in full) and `Cc1ccc([C@H](CC(=O)O)c2ccn3c(C)nnc3c2)cc1CN1C[C@H]2CCCN2c2ccccc2S1(=O)=O` cannot be ordered by Kd: less than 1 nM for the first, less than 1 nM for the second.

`Cc1ccc([C@@H](CC(=O)O)c2ccn3c(C(F)(F)F)nnc3c2C)nc1CN1CC2(CC2)Oc2ncccc2S1(=O)=O` and `Cc1ccc([C@H](CC(=O)O)c2ccn3c(C(F)(F)F)nnc3c2C)nc1CN1C[C@@H]2CCCCN2c2ncccc2S1(=O)=O` cannot be ordered by Kd: less than 1 nM for the first, less than 1 nM for the second.

`CCc1nnc2c(C)c([C@H](CC(=O)O)c3ccc(C)c(CN4C[C@H]5CCCN5c5ccccc5S4(=O)=O)c3)ccn12` and `CCc1nnc2c(C)c(C(CC(=O)O)c3ccc(C)c(CN4C[C@H]5CCCN5c5ncccc5S4(=O)=O)c3)ccn12` (stereo not given in full) cannot be ordered by Kd: less than 1 nM for the first, less than 1 nM for the second.

`COc1ccc2c(n1)OC1(CCOCC1)CN(Cc1cc([C@@H](c3ccn4c(C(F)F)nnc4c3C)C(C)(C)C(=O)O)ccc1C)S2(=O)=O` and `Cc1ccc([C@@H](c2ccn3c(C(F)F)nnc3c2C)C(C)(C)C(=O)O)cc1CN1CC2(CCOCC2)Oc2nc(OCCN3CCOCC3)ccc2S1(=O)=O` cannot be ordered by Kd: less than 1 nM for the first, less than 1 nM for the second.

`CC[C@@H]1CN(Cc2cc([C@H](CC(=O)O)c3cc(OC(F)F)c4c(c3)nnn4C)ccc2C)S(=O)(=O)c2cccnc2O1` and `Cc1ccc([C@@H](CC(=O)O)c2ccn3c(C(F)(F)F)nnc3c2)cc1CN1C[C@@H]2CCCN2c2ncccc2S1(=O)=O` cannot be ordered by Kd: less than 1 nM for the first, less than 1 nM for the second.

`Cc1cnc2c(c1)S(=O)(=O)N(Cc1cc([C@H](c3ccc4c(nnn4C4CC4)c3C)C(C)(C)C(=O)O)cnc1C)CC1(CCOCC1)O2` and `Cc1cc2c(nc1OCCN1CCCC1)OC1(CC1)CN(Cc1cc([C@@H](c3ccc4c(nnn4C4CC4)c3C)C(C)(C)C(=O)O)cnc1C)S2(=O)=O` cannot be ordered by Kd: less than 1 nM for the first, less than 1 nM for the second.

`Cc1ccc([C@@H](c2ccn3c(C(F)(F)F)nnc3c2C)C(C)(C)C(=O)O)cc1CN1CC2(CCOCC2)Oc2nc(OCCCO)ccc2S1(=O)=O` and `Cc1ccc([C@@H](c2ccn3c(C(F)(F)F)nnc3c2C)C(C)(C)C(=O)O)cc1CN1CC2(CCOCC2)Oc2nc(NCCCO)ccc2S1(=O)=O` cannot be ordered by Kd: less than 1 nM for the first, less than 1 nM for the second.

`Cc1cnc2c(c1)S(=O)(=O)N(Cc1cc(C(CC(=O)O)c3ccn4c(C(F)F)nnc4c3C)ccc1C)CC1(CC1)O2` (stereo not given) and `Cc1ccc([C@H](CC(=O)O)c2ccn3c(C(F)F)nnc3c2C)cc1CN1CC2(CCOCC2)Oc2ncc(F)cc2S1(=O)=O` cannot be ordered by Kd: less than 1 nM for the first, less than 1 nM for the second.

`Cc1cnc2c(c1)S(=O)(=O)N(Cc1cc([C@@H](c3ccn4c(C5CC5)nnc4c3C)C(C)(C)C(=O)O)ccc1C)CC1(CC1)O2` and `Cc1ccc([C@H](CC(=O)O)c2ccn3c(C(F)(F)F)nnc3c2C)cc1CN1CC2(CC2)Oc2ncc(C#N)cc2S1(=O)=O` cannot be ordered by Kd: less than 1 nM for the first, less than 1 nM for the second.

`Cc1ccc([C@@H](c2ccn3c(C(F)(F)F)nnc3c2C)C(C)(C)C(=O)O)cc1CN1CC2(CC2)Oc2nc(OCCN3CCCCC3)ccc2S1(=O)=O` and `Cc1ccc(C(c2ccn3c(C(F)(F)F)nnc3c2C)C(C)(C)C(=O)O)cc1CN1CC2(CCOCC2)Oc2nc(OCCN3CCOCC3)ccc2S1(=O)=O` (stereo not given) cannot be ordered by Kd: less than 1 nM for the first, less than 1 nM for the second.

`Cc1cnc2c(c1)S(=O)(=O)N(Cc1nc([C@H](CC(=O)O)c3ccn4c(C(F)(F)F)nnc4c3C)ccc1C)C[C@@H]1CCCCN21` and `Cc1ccc([C@@H](c2ccn3c(C(F)(F)F)nnc3c2C)C(C)(C)C(=O)O)cc1CN1C[C@@H]2CCCCN2c2ncc(C#N)cc2S1(=O)=O` cannot be ordered by Kd: less than 1 nM for the first, less than 1 nM for the second.

`Cc1cnc([C@@H](c2ccn3c(C(F)F)nnc3c2C)C(C)(C)C(=O)O)cc1CN1CC2(CCOCC2)Oc2nc(OCCN3CCCCC3)c(C)cc2S1(=O)=O` and `Cc1cnc([C@@H](c2ccn3c(C(F)F)nnc3c2C)C(C)(C)C(=O)O)cc1CN1CC2(CCOCC2)Oc2nc(OCCN3CCCC3)c(C)cc2S1(=O)=O` cannot be ordered by Kd: less than 1 nM for the first, less than 1 nM for the second.

`Cc1cc2cc([C@H](CC(=O)O)c3ccc(C)c(CN4C[C@@H]5CCCCN5c5ncccc5S4(=O)=O)c3)n(C)c2nn1` and `Cc1ccc(C(CC(=O)O)c2ccc3c(nnn3C3CC3)c2C)cc1CN1C[C@H]2CCCN2c2ncccc2S1(=O)=O` (stereo not given in full) cannot be ordered by Kd: less than 1 nM for the first, less than 1 nM for the second.

`Cc1ccc([C@@H](c2ccn3c(C(F)F)nnc3c2C)C(C)(C)C(=O)O)cc1CN1CC2(CCOCC2)Oc2nc(OCCN3CCCCC3)c(C)cc2S1(=O)=O` gave a Kd of less than 1 nM.
